Measurements published in patent US12479847B2 (DANA-FARBER CANCER INSTITUTE, INC., priority 2019, dated 2025).

Assays:
Assay in all cases: KINOMEscan (ScanMAX) kinase profiling
Type in all cases: binding
panel of 468 kinases [1] = target: T1, panel of 468 kinases (Homo sapiens, UniProt P45984); details: JNK2; 1 μM; read-out: % control
T1 construct: purchased KINOMEscan (ScanMAX) service

panel of 468 kinases [2] = target: T2, panel of 468 kinases (Homo sapiens, UniProt Q96PY6); details: NEK1; 1 μM; read-out: % control
T2 construct: purchased KINOMEscan (ScanMAX) service
T2 sequence (Q96PY6 1-1258): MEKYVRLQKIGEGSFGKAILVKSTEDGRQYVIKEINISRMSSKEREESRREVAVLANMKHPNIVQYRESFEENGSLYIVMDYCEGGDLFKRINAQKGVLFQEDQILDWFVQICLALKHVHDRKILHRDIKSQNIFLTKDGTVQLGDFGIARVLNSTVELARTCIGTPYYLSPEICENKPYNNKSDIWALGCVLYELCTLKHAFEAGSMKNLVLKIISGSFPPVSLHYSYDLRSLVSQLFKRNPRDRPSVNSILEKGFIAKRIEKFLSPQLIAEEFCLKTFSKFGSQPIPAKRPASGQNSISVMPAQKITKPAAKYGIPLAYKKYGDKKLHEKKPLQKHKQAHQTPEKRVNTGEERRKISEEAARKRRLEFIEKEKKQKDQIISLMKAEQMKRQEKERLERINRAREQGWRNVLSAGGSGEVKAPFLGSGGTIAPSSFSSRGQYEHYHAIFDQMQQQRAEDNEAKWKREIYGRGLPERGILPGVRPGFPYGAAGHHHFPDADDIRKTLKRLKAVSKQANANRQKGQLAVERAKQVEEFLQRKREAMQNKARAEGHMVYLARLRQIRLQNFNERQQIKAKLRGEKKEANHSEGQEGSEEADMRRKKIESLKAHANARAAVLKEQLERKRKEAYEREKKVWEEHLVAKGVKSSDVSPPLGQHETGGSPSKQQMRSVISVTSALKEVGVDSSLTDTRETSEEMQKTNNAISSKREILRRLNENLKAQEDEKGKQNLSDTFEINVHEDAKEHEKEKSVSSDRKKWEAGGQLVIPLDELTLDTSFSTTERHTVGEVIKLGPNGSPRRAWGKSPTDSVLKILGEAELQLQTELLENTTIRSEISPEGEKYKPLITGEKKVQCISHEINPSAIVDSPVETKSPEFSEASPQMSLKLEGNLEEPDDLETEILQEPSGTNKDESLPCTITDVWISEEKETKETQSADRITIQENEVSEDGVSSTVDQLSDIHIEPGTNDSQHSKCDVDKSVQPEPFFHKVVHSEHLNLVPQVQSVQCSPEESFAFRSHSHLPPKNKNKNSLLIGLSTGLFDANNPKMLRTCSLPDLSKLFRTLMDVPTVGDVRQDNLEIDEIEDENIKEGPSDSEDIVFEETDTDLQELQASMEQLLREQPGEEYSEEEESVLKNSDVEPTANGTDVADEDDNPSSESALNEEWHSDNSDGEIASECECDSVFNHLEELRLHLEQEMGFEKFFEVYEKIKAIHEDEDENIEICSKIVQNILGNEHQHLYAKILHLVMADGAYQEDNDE

panel of 468 kinases [3] = target: T3, panel of 468 kinases (Homo sapiens, UniProt Q9UL54); details: TAOK2; 1 μM; read-out: % control
T3 construct: purchased KINOMEscan (ScanMAX) service
T3 sequence (Q9UL54 1-1235): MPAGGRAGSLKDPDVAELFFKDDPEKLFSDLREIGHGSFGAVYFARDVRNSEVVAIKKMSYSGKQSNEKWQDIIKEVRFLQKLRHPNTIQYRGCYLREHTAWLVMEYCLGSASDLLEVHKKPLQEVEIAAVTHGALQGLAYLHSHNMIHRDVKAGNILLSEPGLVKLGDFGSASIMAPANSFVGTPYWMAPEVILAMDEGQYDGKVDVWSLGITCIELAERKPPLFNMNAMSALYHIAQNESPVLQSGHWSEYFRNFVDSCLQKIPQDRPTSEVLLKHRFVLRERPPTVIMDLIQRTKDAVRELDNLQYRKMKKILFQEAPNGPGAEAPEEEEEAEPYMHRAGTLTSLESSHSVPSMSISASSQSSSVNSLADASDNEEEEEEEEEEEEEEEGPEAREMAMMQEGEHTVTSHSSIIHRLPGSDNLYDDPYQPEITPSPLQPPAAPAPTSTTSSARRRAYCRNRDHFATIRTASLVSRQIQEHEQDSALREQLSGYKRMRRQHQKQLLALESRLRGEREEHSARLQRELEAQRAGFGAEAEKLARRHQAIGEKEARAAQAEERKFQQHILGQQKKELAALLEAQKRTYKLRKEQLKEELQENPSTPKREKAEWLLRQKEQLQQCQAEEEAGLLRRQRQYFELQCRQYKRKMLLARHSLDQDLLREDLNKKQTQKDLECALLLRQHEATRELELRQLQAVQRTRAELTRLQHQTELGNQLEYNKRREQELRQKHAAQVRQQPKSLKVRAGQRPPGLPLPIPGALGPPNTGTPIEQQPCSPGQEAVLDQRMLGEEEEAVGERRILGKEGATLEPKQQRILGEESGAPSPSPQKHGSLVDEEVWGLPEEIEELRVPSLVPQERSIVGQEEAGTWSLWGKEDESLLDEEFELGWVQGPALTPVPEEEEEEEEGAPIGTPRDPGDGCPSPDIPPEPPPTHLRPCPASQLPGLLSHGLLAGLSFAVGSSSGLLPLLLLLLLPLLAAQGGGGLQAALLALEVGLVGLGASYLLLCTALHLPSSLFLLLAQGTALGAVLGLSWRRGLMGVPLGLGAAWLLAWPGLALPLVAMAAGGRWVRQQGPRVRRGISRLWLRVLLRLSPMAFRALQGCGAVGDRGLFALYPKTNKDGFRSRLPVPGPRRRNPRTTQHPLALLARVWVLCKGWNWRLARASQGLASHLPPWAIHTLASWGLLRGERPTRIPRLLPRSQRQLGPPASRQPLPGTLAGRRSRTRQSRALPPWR

T1 sequence (P45984 whole entry): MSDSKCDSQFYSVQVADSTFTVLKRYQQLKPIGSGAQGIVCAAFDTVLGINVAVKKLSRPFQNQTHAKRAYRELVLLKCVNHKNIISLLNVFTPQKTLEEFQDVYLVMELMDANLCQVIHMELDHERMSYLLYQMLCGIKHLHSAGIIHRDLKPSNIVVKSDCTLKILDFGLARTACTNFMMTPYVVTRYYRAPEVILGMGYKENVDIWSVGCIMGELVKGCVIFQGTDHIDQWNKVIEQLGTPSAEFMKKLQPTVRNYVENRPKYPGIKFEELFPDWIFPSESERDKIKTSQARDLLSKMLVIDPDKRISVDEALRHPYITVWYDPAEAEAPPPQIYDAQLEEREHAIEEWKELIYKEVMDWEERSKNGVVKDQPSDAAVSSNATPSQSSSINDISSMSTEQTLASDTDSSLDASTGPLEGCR

CNc1nc(Nc2ccc(C(=O)N3CCC(N4CCOCC4)CC3)c3c2OCO3)nc2[nH]cc(Cl)c12 [Compound 75, (7-((5-chloro-4-(methylamino)-7H-pyrrolo[2,3-d]pyrimidin-2-yl)amino)benzo[d][1,3]dioxol-4-yl)(4-morpholinopiperidin-1-yl)methanone]
remaining binding at 1 µM (panel of 468 kinases [1]): 0%
remaining binding at 1 µM (panel of 468 kinases [2]): 88%
remaining binding at 1 µM (panel of 468 kinases [3]): 77%

CNc1nc(Nc2ccc(S(=O)(=O)N3CCC(N4CCOCC4)CC3)cc2OC)nc2[nH]cc(Cl)c12 [Compound 12, 5-chloro-N2-(2-methoxy-4-((4-morpholinopiperidin-1-yl)sulfonyl)phenyl)-N4-methyl-7H-pyrrolo[2,3-d]pyrimidine-2,4-diamine]
remaining binding at 1 µM (panel of 468 kinases [1]): 26%
remaining binding at 1 µM (panel of 468 kinases [2]): 100%
remaining binding at 1 µM (panel of 468 kinases [3]): 73%

CNc1nc(Nc2ccc(P3(=O)CCN(C4CCOCC4)CC3)cc2OC)nc2[nH]cc(Cl)c12 [Compound 77, 4-(4-((5-chloro-4-(methylamino)-7H-pyrrolo[2,3-d]pyrimidin-2-yl)amino)-3-methoxyphenyl)-1-(tetrahydro-2H-pyran-4-yl)-1,4-azaphosphinane 4-oxide]
remaining binding at 1 µM (panel of 468 kinases [1]): 7.5%
remaining binding at 1 µM (panel of 468 kinases [2]): 98%
remaining binding at 1 µM (panel of 468 kinases [3]): 76%
